The source of these data is patent US5914339A, “Substituted 1,3-benzodioxoles” (American Home Products Corporation, priority 1997, dated 1999).

Structures are written as SMILES. Structures can show the parent of a compound that is named as a salt.

For the first assay, the target named is human β2 adrenergic receptor (Homo sapiens, UniProt P07550). As to the kind of experiment: cell-based. Particulars: 10 min; compounds tested at 10 nM, isoproterenol at 10 μM; CHO cells, 10 min at 37° C; read-out: β2: % of isoproterenol activity (increase in cAMP). As to the method: The activity of the test compounds on human β-adrenergic receptors was determined with Chinese hamster ovary (CHO) cells transfected with human β2, or β1 adrenergic receptors. Agonist activity is indicated by increased cAMP levels in the CHO cells. Selectivity of the test compounds for the β3 receptor was assessed by comparison with results in β2 and β1 adrenergic receptor transfected cells.
human β2 adrenergic receptor, sequence (P07550 whole entry): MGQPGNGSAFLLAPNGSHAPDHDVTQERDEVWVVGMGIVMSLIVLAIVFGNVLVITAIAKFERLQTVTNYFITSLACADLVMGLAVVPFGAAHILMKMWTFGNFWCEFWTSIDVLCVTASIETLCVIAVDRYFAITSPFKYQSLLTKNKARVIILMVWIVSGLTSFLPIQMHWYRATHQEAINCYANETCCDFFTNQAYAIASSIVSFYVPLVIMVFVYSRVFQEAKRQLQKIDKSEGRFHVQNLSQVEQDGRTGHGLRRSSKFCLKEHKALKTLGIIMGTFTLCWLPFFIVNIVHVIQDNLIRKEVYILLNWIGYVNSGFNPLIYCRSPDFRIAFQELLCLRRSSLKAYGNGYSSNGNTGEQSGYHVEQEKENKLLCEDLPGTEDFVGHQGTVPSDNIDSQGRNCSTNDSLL
1). Chinese hamster ovary (CHO) cells transfected with human β2, or β1 adrenergic receptors were used in the assay.
2). Cells were grown to confluent conditions in 24 well plates.
3). Drugs were dissolved in DMSO at a concentration of 10 μM.
4). Cells were incubated with drug at 10 nM concentration for 10 min at 37° C.
5). Cell cAMP concentrations were assayed using a scintillation proximity assay kit from Amersham Corp., Chicago, Ill.
6). Activities for the test compounds are expressed as a percentage of the isoproterenol response.
Production of the CHO cells transfected with human β2, or β1 adrenergic receptors, and compound test procedures utilizing the CHO cells, are described by Emorine et al. in their article "Molecular Characterization of the Human Beta3 -Adrenergic Receptor", Science 1989, 245(8), 1118-1121 and by Muzzin et al. in the article "An Adipose Tissue-Specific Beta3 -Adrenergic Receptor", J. Biol. Chem.1991, 266, 24053-24058.
^a Human β receptors expressed in Chinese hamster ovary cells,
compounds tested at 10 nM, results expressed as % of isoproterenol
activity (increase in cAMP) at 10 μM. EC50 (μM) values
determined for selected compounds.
Consider `CC(Cc1ccc2c(c1)OC(C(=O)OCOC(=O)C(C)C)(C(=O)OCOC(=O)C(C)C)O2)NCC(O)c1cccc(Cl)c1` (stereo not shown) [Example 45, 5-{2-[2-(3-Chloro-phenyl)-2-hydroxyethylamino]propyl}benzo[1,3] dioxole-2,2-dicarboxylic acid bis-isobutyryloxymethyl ester], for which the activation at 0.01 µM was found to be 1%.

Take `CCCCCCOC(=O)C1(C(=O)OCCCCCC)Oc2ccc(CC(C)NCC(O)c3cccc(Cl)c3)cc2O1` (stereo not shown) [Example 14, 5-{2-[2-(3-Chloro-phenyl)-2-hydroxy-ethylamino]-propyl}-benzo[1,3]dioxole-2,2-dicarboxylic acid dihexyl ester]: the activation at 0.01 µM amounted to 5%.

With `CC(Cc1ccc2c(c1)OC(C(=O)O)(C(=O)OCCOC(C)(C)C)O2)NCC(O)c1cccc(Cl)c1` (stereo not shown) [Example 7, 5-{2-[2-(3-Chloro-phenyl)-2-hydroxy-ethylamino]-propyl}-benzo[1,3]dioxole-2,2-dicarboxylic acid (2-tert-butoxy-ethyl) ester], the activation at 0.01 µM was found to be 2%.

As for `C[C@H](Cc1ccc2c(c1)OC(C(=O)OCC1CCCO1)(C(=O)OCC1CCCO1)O2)NC[C@H](O)c1cccc(Cl)c1` (stereo partly drawn) [Example 91, 5-{(2R)-2-[(2R)-2-(3-Chloro-phenyl)-2-hydroxy-ethylamino]-propyl}-benzo[1,3]dioxole-2,2-dicarboxylic aicd bis-(tetrahydro-furan-2-ylmethyl) ester], the activation at 0.01 µM was found to be 7%.

For the molecule `CC(OC(=O)OC1CCCCC1)OC(=O)C1(C(=O)OC(C)OC(=O)OC2CCCCC2)Oc2ccc(C[C@@H](C)NC[C@H](O)c3cccc(Cl)c3)cc2O1` (stereo partly drawn) [Example 59, 5-{(2R)-2-[(2R)-2-(3-Chloro-phenyl)-2-hydroxy-ethylamino]-propyl}-benzo[1,3]dioxole-2,2-dicarboxylic acid bis-[1-(cyclohexyloxycarbonyloxy)-ethyl] ester], the activation at 0.01 µM was determined as 10%.

For `CC(Cc1ccc2c(c1)OC(C(=O)OCCC1CCCCC1)(C(=O)OCCC1CCCCC1)O2)NCC(O)c1cccc(Cl)c1` (stereo not shown) [Example 36, 5-{2-[2-(3-Chloro-phenyl)-2-hydroxy-ethylamino]-propyl}-benzo[1,3]dioxole-2,2-dicarboxylic acid bis-(2-cyclohexyl-ethyl) ester], the activation at 0.01 µM came to 2%.

As to `CC(Cc1ccc2c(c1)OC(C(=O)OCOC(=O)CC(C)(C)C)(C(=O)OCOC(=O)CC(C)(C)C)O2)NCC(O)c1cccc(Cl)c1` (stereo not shown) [Example 53, 5-{2-[2-(3-Chloro-phenyl)-2-hydroxyethylamino]propyl}benzo[1,3] dioxole-2,2-dicarboxylic acid bis-(3,3-dimethyl-butyryloxymethyl) ester], the activation at 0.01 µM stood at 2%.

As to `CCC(C)(C)C(=O)OCOC(=O)C1(C(=O)OCOC(=O)C(C)(C)CC)Oc2ccc(CC(C)NCC(O)c3cccc(Cl)c3)cc2O1` (stereo not shown) [Example 58, 5-{2-[2-(3-Chloro-phenyl)-2-hydroxyethylamino]propyl}benzo[1,3] dioxole-2,2-dicarboxylic acid bis-(2,2-dimethyl-butyryloxymethyl) ester], the activation at 0.01 µM is 8%.

As for `CC(C)COCCOC(=O)C1(C(=O)OCCOCC(C)C)Oc2ccc(CC(C)NCC(O)c3cccc(Cl)c3)cc2O1` (stereo not shown) [Example 8, 5-{2-[2-(3-Chloro-phenyl)-2-hydroxy-ethylamino]-propyl}-benzo[1,3]dioxole-2,2-dicarboxylic acid bis-(2-isobutoxy-ethyl) ester], the activation at 0.01 µM came to 1%.

On to `CC(C)CCCOC(=O)C1(C(=O)OCCCC(C)C)Oc2ccc(CC(C)NCC(O)c3cccc(Cl)c3)cc2O1` (stereo not shown) [Example 35, 5-{2-[2-(3-Chloro-phenyl)-2-hydroxy-ethylamino]-propyl}-benzo[1,3]dioxole-2,2-dicarboxylic acid bis-(4-methyl-pentyl) ester], for which the activation at 0.01 µM was 4%.

Take `CC(Cc1ccc2c(c1)OC(C(=O)OCCCC1CCCC1)(C(=O)OCCCC1CCCC1)O2)NCC(O)c1cccc(Cl)c1` (stereo not shown) [Example 37, 5-{2-[2-(3-Chloro-phenyl)-2-hydroxy-ethylamino]-propyl}-benzo[1,3]dioxole-2,2-dicarboxylic acid bis-(3-cyclopentyl-propyl) ester]: the activation at 0.01 µM came to 3%.

For `C[C@H](Cc1ccc2c(c1)OC(C(=O)OC/C=C\COCc1ccccc1)(C(=O)OC/C=C\COCc1ccccc1)O2)NC[C@H](O)c1cccc(Cl)c1` [Example 101, 5-{(2R)-2-[(2R)-2-(3-Chloro-phenyl)-2-hydroxy-ethylamino]-propyl}-benzo[1,3]dioxole-2,2-dicarboxylic acid bis-(4-benzyloxy-but-2-enyl)ester], the activation at 0.01 µM was found to be 3%.

For `CC(Cc1ccc2c(c1)OC(C(=O)O)(C(=O)OCCc1ccsc1)O2)NCC(O)c1cccc(Cl)c1` (stereo not shown) [Example 72, 5-{2-[2-(3-Chloro-phenyl)-2-hydroxy-ethylamino]-propyl}-benzo[1,3]dioxole-2,2-dicarboxylic acid 2-(3-Thienyl)ethyl ester], the activation at 0.01 µM is 13%.

The assay is the same for the next values; noted with them: CHO, 10 min, read-out: β2: % of isoproterenol activity (increase in cAMP).
As to `CCOCCOC(=O)C1(C(=O)O)Oc2ccc(C[C@@H](C)NC[C@H](O)c3cccc(Cl)c3)cc2O1` (stereo partly drawn) [Example 95, 5-{(2R)-2-[(2R)-2-(3-Chloro-phenyl)-2-hydroxy-ethylamino]-propyl}-benzo[1,3]dioxole-2,2-dicarboxylic acid (2-ethoxy-ethyl) ester], the activation at 0.01 µM was 0%.

For the molecule `CC(Cc1ccc2c(c1)OC(C(=O)OCc1ccccc1)(C(=O)OCc1ccccc1)O2)NCC(O)c1cccc(Cl)c1` (stereo not shown) [Example 9, 5-{2-[2-(3-Chloro-phenyl)-2-hydroxy-ethylamino]-propyl}-benzo[1,3]dioxole-2,2-dicarboxylic acid bis-(benzyl) ester hydrochloride salt], the activation at 0.01 µM stood at 16%.

For the molecule `CC(Cc1ccc2c(c1)OC(C(=O)OCCC[Si](C)(C)C)(C(=O)OCCC[Si](C)(C)C)O2)NCC(O)c1cccc(Cl)c1` (stereo not shown) [Example 32, 5-{2-[2-(3-Chloro-phenyl)-2-hydroxy-ethylamino]-propyl}-benzo[1,3]dioxole-2,2-dicarboxylic acid bis-(3-trimethylsilanyl-propyl) ester], the activation at 0.01 µM was 2%.

Take `COCCOC(=O)C1(C(=O)OCCOC)Oc2ccc(CC(C)NCC(O)c3cccc(Cl)c3)cc2O1` (stereo not shown) [Example 1, 5-{2-[2-(3-Chloro-phenyl)-2-hydroxy-ethylamino]-propyl}-benzo[1,3]dioxole-2,2-dicarboxylic acid bis-(2-methoxy-ethyl) ester hydrochloride salt]: the activation at 0.01 µM is 4%.

With `CCOCCOC(=O)C1(C(=O)OCCOCC)Oc2ccc(CC(C)NCC(O)c3cccc(Cl)c3)cc2O1` (stereo not shown) [Example 5, 5-{2-[2-(3-Chloro-phenyl)-2-hydroxy-ethylamino]-propyl}-benzo[1,3]dioxole-2,2-dicarboxylic acid bis-(2-ethoxy-ethyl) ester hydrochloride salt], the activation at 0.01 µM came to 4%.

On to `C[C@H](Cc1ccc2c(c1)OC(C(=O)OCCc1cccc(Br)c1)(C(=O)OCCc1cccc(Br)c1)O2)NC[C@H](O)c1cccc(Cl)c1` [Example 96, 5-{(2R)-2-[(2R)-2-(3-Chloro-phenyl)-2-hydroxy-ethylamino]-propyl}-benzo[1,3]dioxole-2,2-dicarboxylic acid bis-[2-(3-bromo-phenyl)-ethyl]ester hydrochloride salt], for which the activation at 0.01 µM worked out at 1%.
